IC50 data for one compound are collected here from the Kinase Knowledgebase extract (Sharma et al. 2016).

This test has as its target MAPK14 (human) (UniProt Q16539). The test is described as follows: Cell-Based Assay. Conditions: hct-116.

Structures are written as SMILES.

MAPK14 (human), sequence (Q16539 whole entry, looked up): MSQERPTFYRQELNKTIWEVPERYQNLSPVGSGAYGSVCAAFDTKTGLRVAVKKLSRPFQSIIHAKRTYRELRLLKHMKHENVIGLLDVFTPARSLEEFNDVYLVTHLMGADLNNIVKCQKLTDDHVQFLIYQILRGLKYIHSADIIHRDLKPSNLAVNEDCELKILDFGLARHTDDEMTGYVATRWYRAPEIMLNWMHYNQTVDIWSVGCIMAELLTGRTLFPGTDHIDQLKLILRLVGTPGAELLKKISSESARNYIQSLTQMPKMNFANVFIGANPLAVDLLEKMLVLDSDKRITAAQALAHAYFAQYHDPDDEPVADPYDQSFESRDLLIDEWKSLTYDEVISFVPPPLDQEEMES

For the compound `CCN1CCC(n2cc(-c3cnc(N)c4oc(-c5cccc6cnccc56)cc34)cn2)CC1`, the IC50 – broadly, the concentration needed to halve the response being measured – is 100 to 1000 nM.
